“And” between values parts separate entries of the source, which are not always exact repeats. Equal entries are not always repeated.
Columns and labels:
UCHL1 = molecular target: T1, UCHL1 (Homo sapiens, UniProt P09936); assay: ABP 2 labeling in HEK293 cells, AzTB ligation, in-gel fluorescence; conditions: HEK293, time course
T1 sequence (P09936 1-223): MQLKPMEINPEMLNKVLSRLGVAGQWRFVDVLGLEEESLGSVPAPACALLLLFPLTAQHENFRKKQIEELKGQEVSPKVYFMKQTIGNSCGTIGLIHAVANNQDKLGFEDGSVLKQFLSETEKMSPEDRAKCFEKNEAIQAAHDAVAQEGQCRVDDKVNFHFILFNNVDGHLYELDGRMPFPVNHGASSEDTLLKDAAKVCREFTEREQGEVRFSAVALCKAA

EIF3F = EIF3F (Homo sapiens, UniProt O00303); assay: Quantitative chemical proteomic profiling of ABP 2 in HEK293 cells: EIF3F; conditions: for Log2 reporter intensity values (Log2FC, DMSO substract): EIF3F, listed as ABP 2
[1] = molecular target: DUBs and other proteins in HEK293 cells (Homo sapiens, UniProt P54578); assay: Quantitative chemical proteomic profiling of ABP 2 in HEK293 cells: other DUBs and proteins across the proteome; conditions: USP14, listed as ABP 2
[2] = molecular target: DUBs and other proteins in HEK293 cells (Homo sapiens, UniProt Q96FW1); assay: as above; conditions: OTUB1, listed as ABP 2
[3] = molecular target: DUBs and other proteins in HEK293 cells (Homo sapiens, UniProt Q92905); assay: as above; conditions: COPS5, listed as ABP 2
PSMD14 = PSMD14 (Homo sapiens, UniProt O00487); assay: Quantitative chemical proteomic profiling of ABP 2 in HEK293 cells: PSMD14; conditions: for Log2 reporter intensity values (Log2FC, DMSO substract): PSMD14, listed as ABP 2
[4] = system: FLAG-UCHL1 (WT, C90A, C90S); conditions: HeLa cells overexpressing FLAG-UCHL1, 1 h
EIF3H = EIF3H (Homo sapiens, UniProt O15372); assay: Quantitative chemical proteomic profiling of ABP 2 in HEK293 cells: EIF3H; conditions: for Log2 reporter intensity values (Log2FC, DMSO substract): EIF3H, listed as ABP 2
[5] = ABP 2 stability in cell culture medium (in-gel fluorescence readout); conditions: DMEM medium, 37 °C, then 1 h on HEK293 cells
[6] = system: UCHL3, UCHL5, and DUBs from other families; assay: ABP 2 labeling in HEK293 cells, pulldown and immunoblotting of other DUBs; conditions: HEK293, 1 h, pulldown, immunoblot
[7] = system: HEK293 cells whole proteome; assay: Whole proteome analysis (no enrichment) of HEK293 cells treated with ABP 2, TMT; assay type: cell-based, human
FGFR2 = FGFR2 (Homo sapiens, UniProt P21802); assay: ABP 2 labeling in HEK293 cells, pulldown and FGFR2 immunoblotting; conditions: HEK293, any concentration up to 2 μM
[8] = 200 nM, 180 min, replicates A,C
[9] = HEK293, 20 nM vs DMSO, 1 h, enrichment, TMT, n=3
[10] = HEK293, 200 nM vs DMSO, 1 h, enrichment, TMT, n=3
[11] = HEK293, 2 nM vs DMSO, 1 h, enrichment, TMT, n=3
[12] = whole proteome, no enrichment, HEK293, 0.02 μM vs DMSO, 1 h
[13] = whole proteome, no enrichment, HEK293, 0.2 μM vs DMSO, 1 h
[14] = whole proteome, no enrichment, HEK293, 2 μM vs DMSO, 1 h

DUBs and other proteins in HEK293 cells (Homo sapiens, UniProt P54578), sequence (P54578 whole entry): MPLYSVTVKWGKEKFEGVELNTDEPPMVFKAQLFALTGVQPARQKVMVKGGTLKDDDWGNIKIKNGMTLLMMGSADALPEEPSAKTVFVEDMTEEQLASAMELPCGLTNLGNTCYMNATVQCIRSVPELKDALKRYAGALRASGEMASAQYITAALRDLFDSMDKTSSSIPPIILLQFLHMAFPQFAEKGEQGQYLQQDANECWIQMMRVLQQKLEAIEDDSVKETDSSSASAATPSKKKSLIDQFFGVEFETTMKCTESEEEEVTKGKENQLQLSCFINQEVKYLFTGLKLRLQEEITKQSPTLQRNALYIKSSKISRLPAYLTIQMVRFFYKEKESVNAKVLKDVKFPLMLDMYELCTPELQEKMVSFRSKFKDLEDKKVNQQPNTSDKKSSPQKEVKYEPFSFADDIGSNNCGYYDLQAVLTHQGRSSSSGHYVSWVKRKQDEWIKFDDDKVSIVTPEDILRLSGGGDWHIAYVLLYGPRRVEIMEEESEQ
DUBs and other proteins in HEK293 cells (Homo sapiens, UniProt Q92905), sequence (Q92905 whole entry): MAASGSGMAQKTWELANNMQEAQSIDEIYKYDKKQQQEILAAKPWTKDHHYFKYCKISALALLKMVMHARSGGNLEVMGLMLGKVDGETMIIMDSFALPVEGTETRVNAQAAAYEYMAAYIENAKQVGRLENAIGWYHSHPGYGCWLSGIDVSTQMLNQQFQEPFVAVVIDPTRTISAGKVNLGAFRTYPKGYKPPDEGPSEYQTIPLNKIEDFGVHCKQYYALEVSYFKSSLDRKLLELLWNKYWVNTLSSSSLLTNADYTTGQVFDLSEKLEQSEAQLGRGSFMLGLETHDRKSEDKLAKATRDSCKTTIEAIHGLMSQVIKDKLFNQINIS
DUBs and other proteins in HEK293 cells (Homo sapiens, UniProt Q96FW1), sequence (Q96FW1 whole entry): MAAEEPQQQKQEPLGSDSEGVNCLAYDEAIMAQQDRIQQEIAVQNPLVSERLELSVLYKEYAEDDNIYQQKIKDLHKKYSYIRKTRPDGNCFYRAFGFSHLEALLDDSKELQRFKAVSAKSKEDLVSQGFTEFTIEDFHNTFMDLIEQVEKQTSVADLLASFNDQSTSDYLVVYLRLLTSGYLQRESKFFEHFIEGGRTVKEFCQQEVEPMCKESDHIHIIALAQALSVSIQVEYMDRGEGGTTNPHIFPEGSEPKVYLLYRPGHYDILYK
FGFR2, sequence (P21802 22-821): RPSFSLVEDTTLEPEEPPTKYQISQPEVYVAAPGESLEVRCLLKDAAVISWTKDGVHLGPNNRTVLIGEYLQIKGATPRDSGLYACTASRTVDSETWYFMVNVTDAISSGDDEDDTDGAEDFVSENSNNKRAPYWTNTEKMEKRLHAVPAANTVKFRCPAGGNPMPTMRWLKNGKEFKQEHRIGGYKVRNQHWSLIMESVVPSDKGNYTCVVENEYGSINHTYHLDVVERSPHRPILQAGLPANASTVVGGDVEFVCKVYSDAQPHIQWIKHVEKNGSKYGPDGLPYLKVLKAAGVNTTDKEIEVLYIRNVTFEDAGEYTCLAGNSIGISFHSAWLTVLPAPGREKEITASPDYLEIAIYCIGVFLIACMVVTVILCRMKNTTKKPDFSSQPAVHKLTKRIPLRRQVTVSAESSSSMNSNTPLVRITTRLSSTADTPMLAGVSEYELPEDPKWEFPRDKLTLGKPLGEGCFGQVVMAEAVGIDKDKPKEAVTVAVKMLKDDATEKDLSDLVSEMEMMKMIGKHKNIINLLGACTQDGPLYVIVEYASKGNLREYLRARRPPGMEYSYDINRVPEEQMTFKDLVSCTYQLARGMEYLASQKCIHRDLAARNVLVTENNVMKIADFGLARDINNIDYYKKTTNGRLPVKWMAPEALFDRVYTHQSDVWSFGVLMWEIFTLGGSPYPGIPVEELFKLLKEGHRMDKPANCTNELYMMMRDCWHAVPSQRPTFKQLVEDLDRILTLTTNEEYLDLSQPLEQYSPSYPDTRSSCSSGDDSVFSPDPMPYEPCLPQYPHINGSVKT

C#Cc1cnc2[nH]cc(-c3cccc4c3CCN4C(=O)[C@@H]3CCCN3C#N)c2c1 [Compound 2]
time to maximal labeling (UCHL1): ≤ 60 min
Log2 reporter intensity values (Log2FC, DMSO substract) (EIF3F; 2 nM, 60 min, replicates A-C): 0.2006 and 0.08743 and 0.3363
Log2 reporter intensity values (Log2FC, DMSO substract) (EIF3F; 20 nM, 10 min, replicates B,C): 0.2292 and 0.2562
Log2 reporter intensity values (Log2FC, DMSO substract) (EIF3F; 20 nM, 60 min, replicates A-C): 0.2037 and 0.07421 and -0.06904
Log2 reporter intensity values (Log2FC, DMSO substract) (EIF3F; 20 nM, 180 min, replicates A-C): 0.329 and 0.1016 and 0.09094
Log2 reporter intensity values (Log2FC, DMSO substract) (EIF3F; 200 nM, 10 min, replicates B,C): 0.1208 and 0.2271
Log2 reporter intensity values (Log2FC, DMSO substract) (EIF3F; 200 nM, 60 min, replicates A-C): 0.222 and -0.03463 and 0.3157
Log2 reporter intensity values (Log2FC, DMSO substract) (EIF3F; [8]): 0.2814 and 0.1468
Log2 t-test Difference, EIF3F, 20 nM (EIF3F; [9]): 0.06962
Log2 t-test Difference, EIF3F, 200 nM (EIF3F; [10]): 0.1677
Log2 reporter intensity values (Log2FC, DMSO substract) ([1]; 2 nM, 60 min, replicates A-C): 0.01071 and 0.05631 and -0.04364
Log2 reporter intensity values (Log2FC, DMSO substract) ([1]; 20 nM, 10 min, replicates B,C): 0.009394 and 0.07693
Log2 reporter intensity values (Log2FC, DMSO substract) ([1]; 20 nM, 60 min, replicates A-C): 0.05332 and 0.1025
Log2 reporter intensity values (Log2FC, DMSO substract) ([1]; 20 nM, 180 min, replicates A-C): 0.1385 and 0.1351 and 0.05551
Log2 reporter intensity values (Log2FC, DMSO substract) ([1]; 200 nM, 10 min, replicates B,C): 0.1048
Log2 reporter intensity values (Log2FC, DMSO substract) ([1]; 200 nM, 60 min, replicates A-C): 0.05455 and 0.04834 and 0.1109
Log2 reporter intensity values (Log2FC, DMSO substract) [1, 8]: -0.08272 and -0.01544
Log2 reporter intensity values (Log2FC, DMSO substract) ([2]; 2 nM, 60 min, replicates A-C): 0.1769 and 0.1167 and 0.05908
Log2 reporter intensity values (Log2FC, DMSO substract) ([2]; 20 nM, 10 min, replicates B,C): 0.07104
Log2 reporter intensity values (Log2FC, DMSO substract) ([2]; 20 nM, 60 min, replicates A-C): 0.004019
Log2 reporter intensity values (Log2FC, DMSO substract) ([2]; 20 nM, 180 min, replicates A-C): -0.1034 and 0.07381 and 0.1015
Log2 reporter intensity values (Log2FC, DMSO substract) ([2]; 200 nM, 10 min, replicates B,C): 0.1233 and 0.1033
Log2 reporter intensity values (Log2FC, DMSO substract) ([2]; 200 nM, 60 min, replicates A-C): 0.176 and 0.4057 and 0.2275
Log2 reporter intensity values (Log2FC, DMSO substract) [2, 8]: 0.3761 and 0.4198
Log2 reporter intensity values (Log2FC, DMSO substract) ([3]; 2 nM, 60 min, replicates A-C): -0.07206 and -0.06602 and 0.07642
Log2 reporter intensity values (Log2FC, DMSO substract) ([3]; 20 nM, 10 min, replicates B,C): -0.04991 and -0.07182
Log2 reporter intensity values (Log2FC, DMSO substract) ([3]; 20 nM, 60 min, replicates A-C): -0.1096 and -0.2324 and -0.02748
Log2 reporter intensity values (Log2FC, DMSO substract) ([3]; 20 nM, 180 min, replicates A-C): -0.1203 and -0.07618 and -0.1432
Log2 reporter intensity values (Log2FC, DMSO substract) ([3]; 200 nM, 10 min, replicates B,C): -0.09582 and 0.125
Log2 reporter intensity values (Log2FC, DMSO substract) ([3]; 200 nM, 60 min, replicates A-C): 0.01523 and 0.2396 and 0.003556
Log2 reporter intensity values (Log2FC, DMSO substract) [3, 8]: 0.05752 and -0.04833
Log2 t-test Difference, PSMD14, 2 nM (PSMD14; [11]): 0.06988
Log2 t-test Difference, PSMD14, 20 nM (PSMD14; [9]): -0.004272
Log2 t-test Difference, PSMD14, 200 nM (PSMD14; [10]): 0.1265
Log2 reporter intensity values (Log2FC, DMSO substract) (PSMD14; 2 nM, 60 min, replicates A-C): 0.2334 and 0.06155 and -0.08529
Log2 reporter intensity values (Log2FC, DMSO substract) (PSMD14; 20 nM, 10 min, replicates B,C): -0.01968 and 0.08775
Log2 reporter intensity values (Log2FC, DMSO substract) (PSMD14; 20 nM, 60 min, replicates A-C): -0.03468 and 0.06905 and -0.04719
Log2 reporter intensity values (Log2FC, DMSO substract) (PSMD14; 20 nM, 180 min, replicates A-C): 0.05966 and 0.0953 and 0.01379
Log2 reporter intensity values (Log2FC, DMSO substract) (PSMD14; 200 nM, 10 min, replicates B,C): 0.3381 and 0.09077
Log2 reporter intensity values (Log2FC, DMSO substract) (PSMD14; 200 nM, 60 min, replicates A-C): 0.2255 and 0.1628 and -0.008927
Log2 reporter intensity values (Log2FC, DMSO substract) (PSMD14; [8]): 0.02414 and 0.2255
labeling of WT versus C90A/C90S UCHL1 [4]: only WT UCHL1 is labeled
Log2 reporter intensity values (Log2FC, DMSO substract) (EIF3H; 2 nM, 60 min, replicates A-C): 0.03927 and 0.1861 and 0.1127
Log2 reporter intensity values (Log2FC, DMSO substract) (EIF3H; 20 nM, 10 min, replicates B,C): 0.003189 and 0.05275
Log2 reporter intensity values (Log2FC, DMSO substract) (EIF3H; 20 nM, 60 min, replicates A-C): 0.08479 and -0.05372 and 0.1466
Log2 reporter intensity values (Log2FC, DMSO substract) (EIF3H; 20 nM, 180 min, replicates A-C): -0.0501 and -0.006928 and -0.004662
Log2 reporter intensity values (Log2FC, DMSO substract) (EIF3H; 200 nM, 10 min, replicates B,C): 0.1905 and -0.004432
Log2 reporter intensity values (Log2FC, DMSO substract) (EIF3H; 200 nM, 60 min, replicates A-C): 0.08499 and -0.02572 and 0.1313
Log2 reporter intensity values (Log2FC, DMSO substract) (EIF3H; [8]): -0.03275 and 0.07608
Log2 t-test Difference, EIF3H, 2 nM (EIF3H; [11]): 0.1127
Log2 t-test Difference, EIF3H, 20 nM (EIF3H; [9]): 0.05921
Log2 t-test Difference, EIF3H, 200 nM (EIF3H; [10]): 0.06352
stability in media without loss of activity [5]: > 72 h
labeling of UCHL3, UCHL5, and DUBs from other families [6]: minimal or no detectable labeling
abundance change in whole proteome analysis ([7]; HEK293, 20, 200 or 2000 nM, 60 min): No significant abundance change
Log2 t-test Difference, AAAS, ABP 2 -0.02 μM [7, 12]: 0.04017
Log2 t-test Difference, AACS, ABP 2 -0.02 μM [7, 12]: -0.01983
Log2 t-test Difference, AAGAB, ABP 2 -0.02 μM [7, 12]: 0.05728
Log2 t-test Difference, AAMP, ABP 2 -0.02 μM [7, 12]: -0.03986
Log2 t-test Difference, AAAS, ABP 2 -0.2 μM [7, 13]: -0.001777
Log2 t-test Difference, AACS, ABP 2 -0.2 μM [7, 13]: 0.03866
Log2 t-test Difference, AAGAB, ABP 2 -0.2 μM [7, 13]: 0.002598
Log2 t-test Difference, AAMP, ABP 2 -0.2 μM [7, 13]: 0.04194
Log2 t-test Difference, AAAS, ABP 2 -2 μM [7, 14]: 0.07218
Log2 t-test Difference, AACS, ABP 2 -2 μM [7, 14]: 0.09255
Log2 t-test Difference, AAGAB, ABP 2 -2 μM [7, 14]: 0.1494
Log2 t-test Difference, AAMP, ABP 2 -2 μM [7, 14]: -0.01217
FGFR2 enrichment by pulldown and immunoblotting (FGFR2): barely detectable

Source: publication PMC7366380, “Discovery of a Potent and Selective Covalent Inhibitor and Activity-Based Probe for the Deubiquitylating Enzyme UCHL1, with Antifibrotic Activity” (Journal of the American Chemical Society, 2020)
